Results taken from publication PMC5041986 (Oncotarget, 2016).
Like-named read-outs stand apart in the source and are kept apart here.

Columns and labels:
RT-112 tumor xenografts = assay: RT-112 xenograft model; assay type: in vivo; settings: for tumor growth inhibition (% TGI): ip, nude mice
Experimental: Tumors were measured weekly using calipers. Tumor volume (mm^3) was calculated from w^2×l/2 (w = width, l= length in mm of the tumor).

RT-112 cells [1] = assay: MTT cell viability assay; assay type: cell-based; settings: 72 h; for Viability (% of control cells) RT-112 (10 μM) / Viability (% of control cells) RT-112 (5 μM): mean
Experimental: (§3) Cells were seeded in 96-well plates and exposed to DMSO, or indicated compounds for 72 hours. Cell viability was assessed using the 3-(4,5-dimethylthiazol-2-yl)-2,5-diphenyltetrazolium bromide (MTT) assay as described previously [46]. Briefly, 100 μl of 0.5 mg/ml MTT were added to each well and incubated at 37°C for 1 hour. After that, 100 μl of extraction reagents (0.1 M sodium acetate buffer for suspension cells or DMSO for attached cells) were added to each well to lyse cells and absorbance at 550 nm was measured. Cell viability was expressed as the percentage of surviving cells in drug-treated versus DMSO-treated control cells (which was considered as 100% viability).

RT-112 cells [2] = assay: SA-β-galactosidase staining (senescence); assay type: cell-based
Experimental: Cells were seeded in 6-well plates and treated with indicated agents for 24h. Senescence was measured by Senescence β-Galactosidase Staining Kit according to the manufacture's instruction (Cell Signaling Technology, Danvers, MA, USA).

HUVEC = assay: MTT cell viability assay; assay type: cell-based; settings: Homo sapiens, HUVEC (normal cell), 72 h
Experimental: as §3

RT-112 cells [3] = assay: Flow cytometric cell cycle analysis; assay type: cell-based; settings: flow cytometry; for G0/G1 cell cycle arrest: 4 μM, 24 h; for accumulation of the sub-G1 phase (apoptotic cell death): 48 h to 72 h
Experimental: Cells were seeded in 6-well plates and treated with DMSO or indicated compounds at various concentrations for the indicated times. After treatment, the cells were harvested by trypsinization, washed with PBS, and the pellets were fixed in ice-cold 70% ethanol at -20°C overnight. After centrifugation, the cells were incubated for 15 minutes at room temperature in 0.1 mL of phosphate-citric acid buffer (0.2 M NaHPO4, 0.1 M citric acid, and pH 7.8) and then stained with propidium iodide staining buffer containing Triton X-100 (0.1%, v/v), RNase A (100 μg/mL), and propidium iodide (80 μg/mL) for 30 minutes in the dark. DNA contents were analyzed by flow cytometry with CellQuest software (Becton Dickinson, Mountain View, CA, USA). The results were obtained from three independent experiments and the representative data were shown in Supplementary Figure S8 and S9.

RT4 cells = assay: MTT cell viability assay; assay type: cell-based; settings: Homo sapiens, RT-4, RT4 (bladder), 72 h
Experimental: as §3

T24 cells = assay: MTT cell viability assay; assay type: cell-based; settings: Homo sapiens, T-24, T24 (bladder), 72 h
Experimental: as §3

HepG2 cells = assay: MTT cell viability assay; assay type: cell-based; settings: Homo sapiens, HepG2 (liver), 72 h
Experimental: as §3

PLC/PRF/5 cells = assay: MTT cell viability assay; assay type: cell-based; settings: 72 h; for Viability (% of control cells) PLC5/PRF/5 (5 μM): mean
Experimental: as §3

Hep3B cells = assay: MTT cell viability assay; assay type: cell-based; settings: 72 h, mean
Experimental: as §3

SNU-16 cells = assay: MTT cell viability assay; assay type: cell-based; settings: 72 h; for Viability (% of control cells) SNU-16 (5 μM): mean
Experimental: as §3

KMS-11 cells = assay: MTT cell viability assay; assay type: cell-based; settings: Homo sapiens, KMS-11 (myeloma), 72 h
Experimental: as §3

RPMI-8226 cells = assay: MTT cell viability assay; assay type: cell-based; settings: Homo sapiens, RPMI-8226 (myeloma), 72 h
Experimental: as §3

FUDDLS cells = assay: MTT cell viability assay; assay type: cell-based; settings: Homo sapiens, FUDDLS (sarcoma), 72 h
Experimental: as §3

HCT-116 cells = assay: MTT cell viability assay; assay type: cell-based; settings: Homo sapiens, HCT-116 (colorectal), 72 h
Experimental: as §3

A549 cells = assay: MTT cell viability assay; assay type: cell-based; settings: Homo sapiens, A549 (lung), 72 h
Experimental: as §3

MCF-7 cells = assay: MTT cell viability assay; assay type: cell-based; settings: Homo sapiens, MCF7, MCF-7 (breast), 72 h
Experimental: as §3

MDA-MB-231 cells = assay: MTT cell viability assay; assay type: cell-based; settings: Homo sapiens, MDA-MB-231 (breast), 72 h
Experimental: as §3

[4] = system: FGFR-dependent versus FGFR-independent cells; assay: MTT cell viability assay, mean over cell line panel; assay type: cell-based
[5] = system: phosphorylation of FGFR1, FGFR3, FRS2, ERK and AKT in RT-112 cells; assay: Western blot of FGFR signaling; assay type: cell-based
Experimental: (§1) Cells were seeded and treated with indicated compounds at various concentrations for the indicated times. After treatment, cells were harvested by scraping with RIPA buffer containing protease inhibitors and phosphatase inhibitors (Roche Diagnostics Corp., Indianapolis, IN, USA). Total cell lysates were centrifuged at 13,000 g for 30 min and equal amounts of protein were separated by SDS–PAGE and immunoblotted with specific antibodies as previous described. The cells were allowed to recover for 24 h before following treatment. The small interfering RNA (siRNA) for Atg5 (HSS114103, HSS114104, HSS190366), and negative control (siCTL) were purchased from Invitrogen (Carlsbad, CA, USA). Transient transfection was performed by using lipofectamine 2000 according to the manufacture's instructions.

[6] = system: LC3B-I to LC3B-II conversion in RT-112 cells; assay: Western blot of autophagy marker LC3B; assay type: cell-based
Experimental: as §1

CSF1R = molecular target: T1, CSF1R (Homo sapiens, UniProt P07333); assay: KINOMEscan competition-binding assay
T1 construct: purchased DiscoverRx (KINOMEscan service)
Experimental: (§2) The screening is based on a competition-binding assay and the K d values were determined as described previously.

Erbb2 = molecular target: T2, Erbb2 (Homo sapiens, UniProt P04626); assay: KINOMEscan competition-binding assay
T2 construct: purchased DiscoverRx (KINOMEscan service)
Experimental: as §2

FGFR1 = molecular target: T3, FGFR1 (Homo sapiens, UniProt P11362); assay: KINOMEscan competition-binding assay
T3 construct: purchased DiscoverRx (KINOMEscan service)
Experimental: as §2

FGFR2 = molecular target: T4, FGFR2 (Homo sapiens, UniProt P21802); assay: KINOMEscan competition-binding assay
T4 construct: purchased DiscoverRx (KINOMEscan service)
Experimental: as §2

FGFR3 = molecular target: T5, FGFR3 (Homo sapiens, UniProt P22607); assay: KINOMEscan competition-binding assay
T5 construct: purchased DiscoverRx (KINOMEscan service)
Experimental: as §2

FGFR4 = molecular target: T6, FGFR4 (Homo sapiens, UniProt P22455); assay: KINOMEscan competition-binding assay
T6 construct: purchased DiscoverRx (KINOMEscan service)
Experimental: as §2

FLT3 = molecular target: T7, FLT3 (Homo sapiens, UniProt P36888); assay: KINOMEscan competition-binding assay
T7 construct: purchased DiscoverRx (KINOMEscan service)
Experimental: as §2

PDGFRB = molecular target: T8, PDGFRB (Homo sapiens, UniProt P09619); assay: KINOMEscan competition-binding assay
T8 construct: purchased DiscoverRx (KINOMEscan service)
Experimental: as §2

TYK2 = molecular target: T9, TYK2 (Homo sapiens, UniProt P29597); assay: KINOMEscan competition-binding assay
T9 construct: purchased DiscoverRx (KINOMEscan service)
Experimental: as §2

VEGFR2 = molecular target: T10, VEGFR2 (Homo sapiens, UniProt P35968); assay: KINOMEscan competition-binding assay
T10 construct: purchased DiscoverRx (KINOMEscan service)
Experimental: as §2

T9 sequence (P29597 whole entry): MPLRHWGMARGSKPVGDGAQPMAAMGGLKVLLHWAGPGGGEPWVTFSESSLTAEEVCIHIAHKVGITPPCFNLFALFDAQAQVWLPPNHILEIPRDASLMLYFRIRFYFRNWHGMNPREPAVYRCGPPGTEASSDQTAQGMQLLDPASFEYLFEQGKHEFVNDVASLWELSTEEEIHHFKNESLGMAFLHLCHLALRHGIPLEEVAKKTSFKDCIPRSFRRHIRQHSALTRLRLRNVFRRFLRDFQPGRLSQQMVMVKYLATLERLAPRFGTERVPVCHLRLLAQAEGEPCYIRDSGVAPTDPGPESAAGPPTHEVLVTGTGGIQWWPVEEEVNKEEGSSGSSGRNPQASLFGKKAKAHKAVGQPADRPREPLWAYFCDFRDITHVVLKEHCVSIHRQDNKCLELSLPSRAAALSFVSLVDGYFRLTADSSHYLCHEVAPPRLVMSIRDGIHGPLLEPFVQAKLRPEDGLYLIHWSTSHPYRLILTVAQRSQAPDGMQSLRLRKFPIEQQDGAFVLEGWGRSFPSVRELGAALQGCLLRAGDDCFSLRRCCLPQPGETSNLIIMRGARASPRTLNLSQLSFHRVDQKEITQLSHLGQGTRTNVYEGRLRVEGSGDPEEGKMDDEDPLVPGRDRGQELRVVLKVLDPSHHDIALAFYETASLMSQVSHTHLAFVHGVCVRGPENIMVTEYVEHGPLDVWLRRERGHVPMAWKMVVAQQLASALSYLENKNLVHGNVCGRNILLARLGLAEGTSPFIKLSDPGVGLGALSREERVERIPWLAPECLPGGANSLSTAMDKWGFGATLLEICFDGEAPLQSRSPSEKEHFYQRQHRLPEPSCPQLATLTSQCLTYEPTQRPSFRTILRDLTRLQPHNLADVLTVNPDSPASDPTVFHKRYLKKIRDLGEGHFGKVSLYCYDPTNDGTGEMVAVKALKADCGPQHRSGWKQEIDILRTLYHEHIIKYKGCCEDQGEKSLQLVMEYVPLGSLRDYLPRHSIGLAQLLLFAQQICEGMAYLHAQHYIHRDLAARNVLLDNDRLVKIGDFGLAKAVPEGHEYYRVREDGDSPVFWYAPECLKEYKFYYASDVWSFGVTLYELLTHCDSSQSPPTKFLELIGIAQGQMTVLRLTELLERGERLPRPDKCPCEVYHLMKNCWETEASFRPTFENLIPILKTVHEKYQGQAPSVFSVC
T3 sequence (P11362 22-822): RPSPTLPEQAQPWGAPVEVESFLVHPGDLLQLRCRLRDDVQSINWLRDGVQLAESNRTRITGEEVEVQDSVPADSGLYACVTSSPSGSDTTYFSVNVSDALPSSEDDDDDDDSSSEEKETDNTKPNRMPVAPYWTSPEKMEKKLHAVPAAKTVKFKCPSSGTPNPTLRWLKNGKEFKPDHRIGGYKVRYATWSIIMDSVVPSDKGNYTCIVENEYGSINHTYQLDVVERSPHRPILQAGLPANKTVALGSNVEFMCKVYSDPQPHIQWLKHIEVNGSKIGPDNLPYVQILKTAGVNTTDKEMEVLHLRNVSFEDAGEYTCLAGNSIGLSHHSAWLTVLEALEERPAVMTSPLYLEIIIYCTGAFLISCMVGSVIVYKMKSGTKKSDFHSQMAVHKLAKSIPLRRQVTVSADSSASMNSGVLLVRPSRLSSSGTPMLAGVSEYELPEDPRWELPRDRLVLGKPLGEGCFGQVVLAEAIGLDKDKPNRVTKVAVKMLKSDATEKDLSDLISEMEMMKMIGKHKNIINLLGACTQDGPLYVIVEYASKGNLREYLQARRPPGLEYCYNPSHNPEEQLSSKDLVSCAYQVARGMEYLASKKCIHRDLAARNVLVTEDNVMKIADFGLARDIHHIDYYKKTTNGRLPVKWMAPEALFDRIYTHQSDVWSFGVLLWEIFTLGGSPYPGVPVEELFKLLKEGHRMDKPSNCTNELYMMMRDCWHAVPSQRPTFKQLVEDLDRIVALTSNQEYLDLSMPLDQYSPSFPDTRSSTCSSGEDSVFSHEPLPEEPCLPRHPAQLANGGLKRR
T8 sequence (P09619 33-1106): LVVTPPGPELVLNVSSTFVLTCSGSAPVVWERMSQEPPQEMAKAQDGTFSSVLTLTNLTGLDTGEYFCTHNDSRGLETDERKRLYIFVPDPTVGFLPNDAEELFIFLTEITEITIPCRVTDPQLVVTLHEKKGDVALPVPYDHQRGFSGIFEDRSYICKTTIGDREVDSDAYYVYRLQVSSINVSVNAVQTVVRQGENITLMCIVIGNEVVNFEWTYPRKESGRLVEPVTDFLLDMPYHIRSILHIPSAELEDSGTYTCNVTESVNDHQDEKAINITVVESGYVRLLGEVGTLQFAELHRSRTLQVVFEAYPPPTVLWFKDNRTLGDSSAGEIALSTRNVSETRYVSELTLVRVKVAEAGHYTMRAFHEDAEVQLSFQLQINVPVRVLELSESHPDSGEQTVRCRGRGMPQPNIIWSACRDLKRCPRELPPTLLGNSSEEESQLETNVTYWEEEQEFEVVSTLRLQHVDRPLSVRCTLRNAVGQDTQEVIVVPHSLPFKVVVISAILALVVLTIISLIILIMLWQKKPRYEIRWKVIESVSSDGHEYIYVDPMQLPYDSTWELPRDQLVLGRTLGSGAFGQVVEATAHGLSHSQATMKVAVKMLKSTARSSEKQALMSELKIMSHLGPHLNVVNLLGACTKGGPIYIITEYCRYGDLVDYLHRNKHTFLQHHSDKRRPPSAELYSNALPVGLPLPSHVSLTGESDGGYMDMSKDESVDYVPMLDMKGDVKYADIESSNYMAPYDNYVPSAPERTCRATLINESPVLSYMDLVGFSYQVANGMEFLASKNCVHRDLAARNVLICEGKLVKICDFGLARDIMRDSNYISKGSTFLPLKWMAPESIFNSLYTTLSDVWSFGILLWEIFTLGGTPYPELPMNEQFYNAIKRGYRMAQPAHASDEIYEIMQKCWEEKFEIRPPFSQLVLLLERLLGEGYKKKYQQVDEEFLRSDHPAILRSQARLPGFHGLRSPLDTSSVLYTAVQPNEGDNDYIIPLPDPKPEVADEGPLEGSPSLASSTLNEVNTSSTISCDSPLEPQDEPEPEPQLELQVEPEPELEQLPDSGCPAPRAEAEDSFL
T4 sequence (P21802 22-821): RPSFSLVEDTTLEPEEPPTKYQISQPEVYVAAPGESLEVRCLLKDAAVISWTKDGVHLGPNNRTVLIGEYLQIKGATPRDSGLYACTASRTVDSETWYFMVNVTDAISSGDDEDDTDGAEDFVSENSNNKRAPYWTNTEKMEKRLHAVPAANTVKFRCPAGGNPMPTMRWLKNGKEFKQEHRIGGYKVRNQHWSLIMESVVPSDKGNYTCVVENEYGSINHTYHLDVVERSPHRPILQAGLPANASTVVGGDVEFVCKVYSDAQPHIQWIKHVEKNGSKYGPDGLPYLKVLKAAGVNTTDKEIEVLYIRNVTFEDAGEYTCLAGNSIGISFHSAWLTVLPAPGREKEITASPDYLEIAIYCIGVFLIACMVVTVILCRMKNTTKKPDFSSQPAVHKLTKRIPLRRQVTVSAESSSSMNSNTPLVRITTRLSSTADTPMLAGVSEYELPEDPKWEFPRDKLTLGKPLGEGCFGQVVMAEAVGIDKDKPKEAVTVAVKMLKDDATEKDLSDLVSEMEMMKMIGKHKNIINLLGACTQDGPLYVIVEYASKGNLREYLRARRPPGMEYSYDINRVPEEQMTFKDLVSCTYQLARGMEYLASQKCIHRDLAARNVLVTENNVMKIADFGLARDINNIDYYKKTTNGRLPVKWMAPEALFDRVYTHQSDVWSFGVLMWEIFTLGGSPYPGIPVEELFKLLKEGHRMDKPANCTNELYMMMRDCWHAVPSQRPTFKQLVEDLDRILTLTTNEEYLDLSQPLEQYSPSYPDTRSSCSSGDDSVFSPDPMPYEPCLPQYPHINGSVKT
T6 sequence (P22455 22-802): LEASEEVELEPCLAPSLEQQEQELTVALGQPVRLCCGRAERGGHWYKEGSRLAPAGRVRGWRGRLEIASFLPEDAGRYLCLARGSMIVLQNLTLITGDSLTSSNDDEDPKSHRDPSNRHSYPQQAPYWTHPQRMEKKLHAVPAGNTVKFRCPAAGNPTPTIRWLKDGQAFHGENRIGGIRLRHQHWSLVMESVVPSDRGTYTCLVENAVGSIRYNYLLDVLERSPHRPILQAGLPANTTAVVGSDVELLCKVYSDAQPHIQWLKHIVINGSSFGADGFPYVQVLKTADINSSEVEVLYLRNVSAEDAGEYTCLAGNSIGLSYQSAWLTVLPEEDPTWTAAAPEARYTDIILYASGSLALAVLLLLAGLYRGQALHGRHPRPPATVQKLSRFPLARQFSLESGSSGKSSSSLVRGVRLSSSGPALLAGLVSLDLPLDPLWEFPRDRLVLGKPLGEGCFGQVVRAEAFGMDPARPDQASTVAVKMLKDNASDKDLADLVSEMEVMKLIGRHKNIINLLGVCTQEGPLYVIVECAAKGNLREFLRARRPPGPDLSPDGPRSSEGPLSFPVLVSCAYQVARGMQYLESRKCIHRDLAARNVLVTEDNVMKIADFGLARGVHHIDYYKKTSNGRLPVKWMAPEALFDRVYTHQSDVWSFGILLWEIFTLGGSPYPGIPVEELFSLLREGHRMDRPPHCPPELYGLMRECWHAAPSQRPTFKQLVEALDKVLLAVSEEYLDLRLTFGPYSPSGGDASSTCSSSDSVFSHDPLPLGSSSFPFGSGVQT

With N.N.[Cl][Pt][Cl] [cisplatin, reference compound] the “tumor growth inhibition (% TGI)” value (RT-112 tumor xenografts; 5 mg/kg, qwk) was 56.3%.

In the case of COc1c(Cl)c(NC(=O)N(C)c2cc(-c3cccnc3)ncn2)c(Cl)c(OC)c1Cl [MPT0L147], the “Viability (% of control cells) RT-112 (10 μM)” value (RT-112 cells [1]) is reported as 85.0 % of control cells.

COc1cccc2c1C(=O)c1c(O)c3c(c(O)c1C2=O)C[C@@](O)(C(=O)CO)C[C@@H]3O[C@H]1C[C@H](N)[C@H](O)[C@H](C)O1 [doxorubicin, reference compound] was tested, and the “senescence (β-galactosidase activity)” value (RT-112 cells [2]) was “increased β-galactosidase activity”.

In the case of COc1c(Cl)c(NC(=O)N(C)c2cc(-c3cccc(C#N)c3)ncn2)c(Cl)c(OC)c1Cl [MPT0L150], the “Viability (% of control cells) RT-112 (10 μM)” value (RT-112 cells [1]) is reported as 75.0 % of control cells.

For CCN1CCN(c2ccc(Nc3cc(N(C)C(=O)Nc4c(Cl)c(OC)cc(OC)c4Cl)ncn3)cc2)CC1 [BGJ-398, 3-(2,6-dichloro-3,5-dimethoxy-phenyl)-1-{6-[4-(4-ethyl-piperazin-1-yl)-phenylamino]-pyrimidin-4-yl}-1-methyl-urea], the IC50 (HUVEC) was 0.05 µM, the “G0/G1 cell cycle arrest” value (RT-112 cells [3]) was “also observed” and the “accumulation of the sub-G1 phase (apoptotic cell death)” value (RT-112 cells [3]) was “induced pronounced apoptosis”.

For CCN1CCN(c2ccc(Nc3ncnc(N(C)C(=O)Nc4c(Cl)c(OC)c(Cl)c(OC)c4Cl)n3)cc2)CC1 [MPT0L145], the IC50 (RT-112 cells [1]; Homo sapiens, RT-112 (bladder)) was 1.63 ± 0.01 µM, the “Viability (% of control cells) RT-112 (5 μM)” value (RT-112 cells [1]) was 33.4 % of control cells and the “Viability (% of control cells) RT-112 (10 μM)” value (RT-112 cells [1]) was 8.5 % of control cells. It also gave an IC50 (RT4 cells) of 4 ± 0.58 µM, an IC50 (T24 cells) of 6 ± 0.5 µM and an IC50 (HepG2 cells) of 1.18 ± 0.16 µM. For the same compound, the IC50 (PLC/PRF/5 cells; Homo sapiens, PLC/PRF/5 (liver)) was 1.48 ± 0.3 µM, the “Viability (% of control cells) PLC5/PRF/5 (5 μM)” value (PLC/PRF/5 cells) was 20.6 % of control cells and the “Viability (% of control cells) Hep3B (5 μM)” value (Hep3B cells) was 66.2 % of control cells. The IC50 (SNU-16 cells; Homo sapiens, SNU-16 (gastric)) was 0.65 ± 0.07 µM, the “Viability (% of control cells) SNU-16 (5 μM)” value (SNU-16 cells) was 36.9 % of control cells and the IC50 (KMS-11 cells) was 2.05 ± 0.11 µM. It also gave an IC50 (RPMI-8226 cells) of 8.51 ± 1.77 µM, an IC50 (FUDDLS cells) of 4.74 ± 0.49 µM and an IC50 (HCT-116 cells) of 6.12 ± 0.01 µM. It also gave an IC50 (A549 cells) of 5.97 ± 0.1 µM, an IC50 (MCF-7 cells) of 5.98 ± 0.68 µM and an IC50 (MDA-MB-231 cells) of 6.04 ± 0.26 µM. The IC50 ([4]; mean over FGFR-dependent cell lines, read-out: mean IC50 in FGFR-dependent cells) was 1.83 µM, the IC50 ([4]; mean over FGFR-independent cell lines, read-out: mean IC50 in FGFR-independent cells) was 6.74 µM and the “auto-phosphorylation of FGFR1 and FGFR3 and docking protein FRS2” value ([5]; 1 h) was “exerted inhibitory activity”. The “phosphorylation of ERK and AKT” value ([5]; 8 h) was “fully repressed”, the “G0/G1 cell cycle arrest” value (RT-112 cells [3]) was “induced G0/G1 cell cycle arrest to a dramatic extent” and the “accumulation of the sub-G1 phase (apoptotic cell death)” value (RT-112 cells [3]) was “did not promote accumulation of the sub-G1 phase”. For the same compound, the “senescence (β-galactosidase activity)” value (RT-112 cells [2]) was “no appreciable senescence”, the “conversion of LC3B-I to LC3B-II” value [6] was “induced the conversion of LC3B-I to LC3B-II in a time- and concentration-dependent manner” and the “tumor growth inhibition (% TGI)” value (RT-112 tumor xenografts; 5 mg/kg, qd) was 61.4%. For the same compound, the “tumor growth inhibition (% TGI)” value (RT-112 tumor xenografts; 10 mg/kg, qd) was 74.6%, the “safety from assessment of body weight loss after treatment” value (RT-112 tumor xenografts; compared with cisplatin) was “better safety” and the Kd (CSF1R) was 0.34 µM. The Kd (Erbb2) was 10 µM, the Kd (FGFR1) was 0.13 µM and the Kd (FGFR2) was 0.67 µM. For the same compound, the Kd (FGFR3) was 0.27 µM, the Kd (FGFR4) was 7.5 µM and the Kd (FLT3) was 1.3 µM. The Kd (PDGFRB) was 0.68 µM, the Kd (TYK2) was 0.66 µM and the Kd (VEGFR2) was 3.1 µM.

COc1c(Cl)c(NC(=O)N(C)c2cc(-c3ccc(Cl)cc3)ncn2)c(Cl)c(OC)c1Cl [MPT0L156] was tested, and the “Viability (% of control cells) RT-112 (5 μM)” value (RT-112 cells [1]) was 98.3 % of control cells, the “Viability (% of control cells) RT-112 (10 μM)” value (RT-112 cells [1]) was 34.8 % of control cells and the “Viability (% of control cells) PLC5/PRF/5 (5 μM)” value (PLC/PRF/5 cells) was 44.4 % of control cells. For the same compound, the “Viability (% of control cells) Hep3B (5 μM)” value (Hep3B cells) was 54.3 % of control cells and the “Viability (% of control cells) SNU-16 (5 μM)” value (SNU-16 cells) was 76.7 % of control cells.
